Like-named read-outs stand apart in the source and are kept apart here.
How the values were obtained:
Format in all cases: biochemical
PAD1 = target: T1, PAD1 (Homo sapiens, UniProt Q9ULC6); test: Inactivation kinetics of PAD1 (COLDER citrulline assay); details: for kinact/KI / fold less potent than 1 (drop in potency for PAD1) / Ki / kinact: PAD1; for kinact/KI: marks: * nonlinear fit of kobs versus [I], ‡ linear fit, † single kobs; for fold less potent than 1 (drop in potency for PAD1): relative to parent compound 1; for Fold PAD selectivity: PAD1 over the other PADs, bracketed value under kinact/KI; for Ki: concentration of inhibitor that affords half-maximal inactivation
T1 construct: made in house
T1 sequence (Q9ULC6 1-663): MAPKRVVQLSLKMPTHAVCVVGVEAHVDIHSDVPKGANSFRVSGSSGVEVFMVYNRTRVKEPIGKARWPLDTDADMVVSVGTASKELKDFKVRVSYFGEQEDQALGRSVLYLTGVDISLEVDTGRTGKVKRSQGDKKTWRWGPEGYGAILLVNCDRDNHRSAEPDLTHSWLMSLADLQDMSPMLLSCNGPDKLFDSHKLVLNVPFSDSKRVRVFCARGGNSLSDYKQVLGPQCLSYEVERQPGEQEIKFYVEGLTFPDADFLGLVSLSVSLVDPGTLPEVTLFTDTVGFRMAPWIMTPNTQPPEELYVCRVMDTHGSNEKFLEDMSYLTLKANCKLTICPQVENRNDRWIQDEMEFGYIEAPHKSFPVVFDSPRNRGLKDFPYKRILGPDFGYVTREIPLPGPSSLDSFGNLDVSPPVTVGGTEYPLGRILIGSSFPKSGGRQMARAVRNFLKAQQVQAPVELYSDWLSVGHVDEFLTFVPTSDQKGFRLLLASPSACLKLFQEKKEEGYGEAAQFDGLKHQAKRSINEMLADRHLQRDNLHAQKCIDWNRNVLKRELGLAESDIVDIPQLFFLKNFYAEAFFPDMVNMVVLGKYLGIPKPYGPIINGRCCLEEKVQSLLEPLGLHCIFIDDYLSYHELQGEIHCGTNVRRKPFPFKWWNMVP
Experimental: (§1) Inactivation kinetics. […] After 15 min, reactions were quenched with liquid nitrogen and the production of citrulline was quantified using the COLDER assay. (Kearney, et al. Biochemistry 2005, 44, 10570-10582; Knipp, et al. Anal. Biochem. 2000, 286, 257-264.) The time-dependence of PAD inhibition was fit to the following equation 1, […] (1), using Grafit, version 5.0.11, where v is velocity, ν0 is initial velocity, k (or kobs is the pseudo-first-order rate constant of inactivation, and t is time. Upon reaching saturation, the concentration dependence of kobs was fit to equation 2, kobs=kinact[I]/(KI+[I]), (2), using Grafit, version 5.0.11, where kinact is the maximal rate of inactivation, KI is the concentration of inhibitor that affords half-maximal inactivation, and [I] is the concentration of inhibitor. When kobs with [I] varied linearly, kinact/KI was determined from the slope of the line. All the experiments were performed at least in duplicate.

PAD2 = target: T2, PAD2 (Homo sapiens, UniProt Q9Y2J8); test: Inactivation kinetics of PAD2 (COLDER citrulline assay); details: for Fold PAD selectivity: bracketed value under kinact/KI; for kinact/KI: marks: * nonlinear fit of kobs versus [I], ‡ linear fit, † single kobs; for Ki: concentration of inhibitor that affords half-maximal inactivation
T2 construct: made in house
T2 sequence (Q9Y2J8 whole entry): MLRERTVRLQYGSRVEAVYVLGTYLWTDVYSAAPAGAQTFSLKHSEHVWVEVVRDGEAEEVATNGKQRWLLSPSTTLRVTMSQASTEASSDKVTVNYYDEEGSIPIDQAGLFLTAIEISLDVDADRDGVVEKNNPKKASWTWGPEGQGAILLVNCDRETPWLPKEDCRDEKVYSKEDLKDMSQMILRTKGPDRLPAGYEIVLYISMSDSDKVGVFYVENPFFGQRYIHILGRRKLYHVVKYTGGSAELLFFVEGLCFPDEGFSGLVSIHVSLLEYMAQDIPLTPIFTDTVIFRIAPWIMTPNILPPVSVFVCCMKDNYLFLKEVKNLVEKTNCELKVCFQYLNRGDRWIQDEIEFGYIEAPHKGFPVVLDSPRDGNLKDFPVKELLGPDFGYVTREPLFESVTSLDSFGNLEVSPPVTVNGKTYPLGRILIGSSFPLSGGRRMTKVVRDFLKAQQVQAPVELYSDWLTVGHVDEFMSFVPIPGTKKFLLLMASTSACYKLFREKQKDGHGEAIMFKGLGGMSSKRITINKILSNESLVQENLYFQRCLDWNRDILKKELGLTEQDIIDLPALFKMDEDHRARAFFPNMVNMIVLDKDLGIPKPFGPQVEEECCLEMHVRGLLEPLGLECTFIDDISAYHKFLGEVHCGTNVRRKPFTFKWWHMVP
Experimental: as §1

PAD3 = target: T3, PAD3 (Homo sapiens, UniProt Q9ULW8); test: Inactivation kinetics of PAD3 (COLDER citrulline assay); details: for Fold PAD selectivity: bracketed value under kinact/KI; for kinact/KI: marks: * nonlinear fit of kobs versus [I], ‡ linear fit, † single kobs
T3 construct: made in house
T3 sequence (Q9ULW8 1-664): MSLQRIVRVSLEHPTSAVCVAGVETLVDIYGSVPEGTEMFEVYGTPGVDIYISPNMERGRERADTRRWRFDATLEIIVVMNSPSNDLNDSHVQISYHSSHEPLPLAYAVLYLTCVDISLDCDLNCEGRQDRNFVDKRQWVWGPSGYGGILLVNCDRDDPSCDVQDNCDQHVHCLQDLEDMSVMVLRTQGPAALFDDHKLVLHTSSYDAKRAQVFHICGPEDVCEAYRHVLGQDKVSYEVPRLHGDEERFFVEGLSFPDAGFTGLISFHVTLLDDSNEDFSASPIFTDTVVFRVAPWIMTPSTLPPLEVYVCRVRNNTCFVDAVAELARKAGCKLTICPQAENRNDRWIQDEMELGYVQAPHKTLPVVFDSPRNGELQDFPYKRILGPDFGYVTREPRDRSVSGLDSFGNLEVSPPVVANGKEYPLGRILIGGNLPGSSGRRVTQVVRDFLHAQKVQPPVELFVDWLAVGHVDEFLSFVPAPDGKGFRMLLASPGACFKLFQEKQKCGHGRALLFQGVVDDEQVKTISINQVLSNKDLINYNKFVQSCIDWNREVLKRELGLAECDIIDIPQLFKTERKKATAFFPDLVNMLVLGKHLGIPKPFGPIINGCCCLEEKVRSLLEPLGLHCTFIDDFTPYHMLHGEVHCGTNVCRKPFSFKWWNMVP
Experimental: as §1

PAD4 = target: T4, PAD4 (Homo sapiens, UniProt Q9UM07); test: Inactivation kinetics of PAD4 (COLDER citrulline assay); details: for Fold PAD selectivity: bracketed value under kinact/KI; for kinact/KI: marks: * nonlinear fit of kobs versus [I], ‡ linear fit, † single kobs; for Ki: concentration of inhibitor that affords half-maximal inactivation
T4 construct: made in house
T4 sequence (Q9UM07 whole entry): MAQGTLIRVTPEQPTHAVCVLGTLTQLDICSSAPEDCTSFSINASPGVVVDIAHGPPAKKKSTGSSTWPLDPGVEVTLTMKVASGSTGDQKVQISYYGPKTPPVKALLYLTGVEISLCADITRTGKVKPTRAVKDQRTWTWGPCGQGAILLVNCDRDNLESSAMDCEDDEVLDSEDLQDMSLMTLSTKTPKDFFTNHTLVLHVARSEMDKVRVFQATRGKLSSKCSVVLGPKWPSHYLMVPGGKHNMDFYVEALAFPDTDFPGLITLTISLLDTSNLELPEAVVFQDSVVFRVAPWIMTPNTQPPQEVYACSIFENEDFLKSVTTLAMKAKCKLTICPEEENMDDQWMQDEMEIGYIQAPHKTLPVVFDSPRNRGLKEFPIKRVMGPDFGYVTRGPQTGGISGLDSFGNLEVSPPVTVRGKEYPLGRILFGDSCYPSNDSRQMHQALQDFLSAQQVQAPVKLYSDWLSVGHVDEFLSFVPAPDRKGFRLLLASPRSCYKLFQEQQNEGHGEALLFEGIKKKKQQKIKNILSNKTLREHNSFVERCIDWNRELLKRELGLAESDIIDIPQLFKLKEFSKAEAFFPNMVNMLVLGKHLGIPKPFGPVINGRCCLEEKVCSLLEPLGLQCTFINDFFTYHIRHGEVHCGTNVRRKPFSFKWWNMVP
Experimental: as §1

[1] = read-out: kinact/KI (converted)

Row | kinact/KI (PAD1) | Fold PAD selectivity (PAD1) | Fold PAD selectivity (PAD2) | kinact/KI (PAD2) | Fold PAD selectivity (PAD3) | kinact/KI (PAD3) | Fold PAD selectivity (PAD4) | kinact/KI (PAD4) | Ki (PAD1) [µM] | kinact/KI (PAD1; [1]) [M⁻¹ s⁻¹] | kinact/KI (PAD2; [1]) [M⁻¹ s⁻¹] | kinact/KI (PAD3; [1]) [M⁻¹ s⁻¹] | kinact/KI (PAD4; [1]) [M⁻¹ s⁻¹] | Ki (PAD2) [µM] | Structure (SMILES) | further results
1 | 300 ± 30^† M^−1min^−1 | 3 fold | [1] fold | 110 ± 10^† M^−1min^−1 | [2] fold | 240 ± 30^† M^−1min^−1 | [2] fold | 180 ± 20^† M^−1min^−1 | – | – | – | – | – | – | N=C(CF)NCCC[C@H](NC(=O)c1cccc(I)c1O)c1nc2ccccc2[nH]1 [Compound 17] | fold less potent than 1 (drop in potency for PAD1) (PAD1): 35 fold
2 | – | 13 fold | [1] fold | – | [4] fold | – | [5] fold | – | 46.7 | 25 | 2 | 8.33 | 10.7 | – | N=C(CF)NCCC[C@H](NC(=O)c1cc(I)ccc1O)c1nc2ccccc2[nH]1 [Compound 15] | kinact (PAD1; read-out: kinact (converted)): 0.00117 s⁻¹; fold less potent than 1 (drop in potency for PAD1) (PAD1): 7 fold
3 | – | – | – | – | – | – | – | – | – | – | – | – | – | 91.5 | N=C(CCl)NCCC[C@H](NC(=O)c1cc(Br)cc(Br)c1O)c1nc2ccccc2[nH]1 [Compound 12] | –
4 | 5300 ± 210^‡ M^−1min^−1 | [2] fold | [1] fold | 3400 ± 70^‡ M^−1min^−1 | [2] fold | 5500 ± 300^‡ M^−1min^−1 | [1] fold | 2600 ± 70^‡ M^−1min^−1 | – | – | – | – | – | – | N=C(CCl)NCCC[C@H](NC(=O)c1cc(Cl)cc(Cl)c1O)c1nc2ccccc2[nH]1 [Compound 14] | –
5 | – | – | – | – | – | – | – | – | – | – | – | – | – | 93.7 | N=C(CCl)NCCC[C@H](NC(=O)c1cc(I)cc(I)c1O)c1nc2ccccc2[nH]1 [Compound 2] | –
6 | – | – | – | – | – | – | – | – | – | – | – | – | – | 131 | CC(C)c1cc(C(=O)N[C@@H](CCCNC(=N)CCl)c2nc3ccccc3[nH]2)c(O)c(C(C)C)c1 [Compound 10] | –
7 | 190 ± 20^† M^−1min^−1 | [1] fold | [2] fold | 400 ± 30^† M^−1min^−1 | [3] fold | 580 ± 120^† M^−1min^−1 | [1] fold | 240 ± 20^† M^−1min^−1 | – | – | – | – | – | – | CC(C)c1cc(C(=O)N[C@@H](CCCNC(=N)CF)c2nc3ccccc3[nH]2)c(O)c(C(C)C)c1 [Compound 9] | –
8 | – | 25 fold | [1] fold | – | [3] fold | – | [2] fold | – | 54.8 | 54.7 | 2.17 | 7 | 4.17 | – | N=C(CF)NCCC[C@H](NC(=O)c1cc(Br)cc(Br)c1O)c1nc2ccccc2[nH]1 [Compound 11] | kinact (PAD1; read-out: kinact (converted)): 0.003 s⁻¹; fold less potent than 1 (drop in potency for PAD1) (PAD1): 3 fold
9 | – | – | – | – | – | – | – | – | – | – | – | – | – | 208 | COc1c(I)cc(I)cc1C(=O)N[C@@H](CCCNC(=N)CCl)c1nc2ccccc2[nH]1 [Compound 4] | –
10 | 72160 ± 10970* M^−1min^−1 | – | [4] fold | 31230 ± 1440* M^−1min^−1 | [1] fold | 8200 ± 30* M^−1min^−1 | [3] fold | 25000 ± 1370* M^−1min^−1 | 35.2 | – | – | – | – | 25.3 | C#Cc1c(I)cc(C(=O)N[C@@H](CCCNC(=N)CCl)c2nc3ccccc3[nH]2)c(O)c1I [Compound 22] | kinact (PAD1): 0.0423 s⁻¹; kinact (PAD2): 0.79 min⁻¹; kinact (PAD3): 0.8 min⁻¹; Ki (PAD3; concentration of inhibitor that affords half-maximal inactivation): 97.6 µM; kinact (PAD4): 0.77 min⁻¹; Ki (PAD4): 30.8 µM
11 | – | [8] fold | [2] fold | – | [3] fold | – | [1] fold | – | 44.3 | 97.8 | 27.5 | 36 | 12.5 | – | COc1c(I)cc(I)cc1C(=O)NC(CCCNC(=N)CF)c1nc2ccccc2[nH]1 (stereo not shown) [Compound 3] | kinact (PAD1; read-out: kinact (converted)): 0.00433 s⁻¹
12 | 4100 ± 300^‡ M^−1min^−1 | [4] fold | [2] fold | 2210 ± 270^† M^−1min^−1 | [1] fold | 1170 ± 40^† M^−1min^−1 | [3] fold | 3160 ± 550^† M^−1min^−1 | – | – | – | – | – | – | N=C(CCl)NCCC[C@H](NC(=O)c1cccc(I)c1O)c1nc2ccccc2[nH]1 [Compound 18] | –
13 | – | – | – | – | – | – | – | – | – | – | – | – | – | 17.5 | N=C(CCl)NCCC[C@H](NC(=O)c1cc(I)c(F)c(I)c1O)c1nc2ccccc2[nH]1 [Compound 20] | –
14 | 3900 ± 100^‡ M^−1min^−1 | [2] fold | [1] fold | 1700 ± 70^‡ M^−1min^−1 | [3] fold | 5000 ± 280^‡ M^−1min^−1 | [2] fold | 3600 ± 70^‡ M^−1min^−1 | – | – | – | – | – | – | N=C(CCl)NCCC[C@H](NC(=O)c1cc(I)ccc1O)c1nc2ccccc2[nH]1 [Compound 16] | –
15 | – | 10 fold | [1] fold | – | [4] fold | – | [2] fold | – | 124 | 21.5 | 2.17 | 9.17 | 4.83 | – | N=C(CF)NCCC[C@H](NC(=O)c1cc(Cl)cc(Cl)c1O)c1nc2ccccc2[nH]1 [Compound 13] | kinact (PAD1; read-out: kinact (converted)): 0.00267 s⁻¹; fold less potent than 1 (drop in potency for PAD1) (PAD1): 8 fold
16 | – | [1] fold | [5] fold | – | [18] fold | – | [68] fold | – | – | 10 | 46.7 | 176 | 684 | – | N=C(CCl)NCCC[C@H](NC(=O)c1ccccc1O)c1nc2ccccc2[nH]1 [Compound 8] | Ki (PAD4): 25.1 µM; kinact (PAD4; read-out: kinact (converted)): 1.03 min⁻¹
17 | – | [9] fold | [1] fold | – | [3] fold | – | [1] fold | – | 30.2 | 121 | 12.8 | 41.2 | 17.8 | – | N=C(CF)NCCC[C@H](NC(=O)c1cc(I)cc(I)c1)c1nc2ccccc2[nH]1 [Compound 5] | kinact (PAD1; read-out: kinact (converted)): 0.00367 s⁻¹

Source: US12448358B2, “Inhibitors of protein arginine deiminase 1 and methods of preparation and use thereof” (University of Massachusetts, priority 2019, dated 2025)
